Source: US8022056B2, “Compositions and methods for the treatment of cancer” (Tautatis, Inc, priority 2006, dated 2011)
Like-named read-outs stand apart in the source and are kept apart here.

Columns and labels:
U251 xenograft = test: Mouse xenograft model U251; format: in vivo; details: Brain, CDKN2A/p53/PTEN; oral twice daily dosing
Description: The efficacy of the compound of the formula 1 was confirmed in mouse tumor xenograft models, employing the NMRI(nu/nu) strain of mice. For example, cells from the human tumor cell lines MDA-MB-231, U373, and HT29 were pre-incubated subcutaneously in several nude mice to select for the most robustly growing cell population. After having grown to a sufficient size after 2-3 weeks, a piece of about 2 mm^3 volume of the most suitable tumor was transplanted subcutaneously into the region of the thoracic mammary fat pads, an area ensuring a high degree of vascularization of the grafted tissue. […] During the course of the treatment, the weight of the animals and the size of the transplanted tumor was monitored three times a week. […] These doses are best determined separately for each individual mouse strain employed.
To establish a solid tumour 3×10^6 tumor cells suspended in 100 μl of serum free medium (RPMI) were inoculated subcutaneously into the region of the thoracic mammary fat pads of 5 Male NMRI(nu/nu) mice of 8-10 weeks of age. […] During the course of the treatment body weight changes and tumor growth were recorded three times a week. Growth curves were plotted together with standard deviations and the significance of differences was determined using an unpaired t-test in FIG. 11. […]

[1] = system: U373 glioblastoma cell line; test: Long-term growth inhibition, crystal violet staining; format: cell-based, human; details: 10 nM, over a week
Description: For proliferation assays tumor cell suspensions (100 μl/well) were seeded into 96-well flat bottomed microtitration plates at a density of ca. 15 cells/microscopic field (magnification 320×). After 2-3 days the culture medium was removed by suction and replaced by fresh medium (200 μl/well) containing varying concentrations of the compound of the formula 1 or vehicle (0.5% DMSO). Compound 1 was added as […] concentrated feed solutions. On every plate 16 wells served as controls and 16 wells were used per concentration of 1. After various times of incubation the cells were fixed with glutardialdehyde and stored in a refrigerator. At the end of the assay all plates were processed simultaneously (staining with 0.02% aqueous crystal violet solution (100 μl/well). Excess dye was removed by rinsing the trays with water for 20 min. The stain bound by the cells was redissolved in 70% ethanol (180 μl/well) while shaking the microplates for about 3 hours. Absorbance (proportional to cell mass) was measured at 578 nm using a BIOTEK 309 Autoreader. The results (mean values±standard deviation) were plotted as growth curves.
The EGF-receptor independent U373 Human Glioblastoma cell line (obtained from ATCC, Rockville, USA) was cultured as above. Treatment with the compound of the formula 1 and analysis of growth inhibition was performed analogous to Example 3.

NCI-60 panel cell lines = test: NCI-60 panel growth inhibition screen; format: cell-based; details: for GI50: nominal concentration
Source text: FIGS. 7a-h show the inhibitory potencies of compound 1 in the cell lines of the NCI panel from various cancers. The growth of cells treated with various concentrations of compound 1 was expressed in reference to untreated controls (100%) after 48 hr exposure. Negative growth values represent cell death. Actual concentrations of compound 1 are about two times lower than nominal due to well binding in the 96-well plate format.
FIG. 8 represents the GI50 (50% growth inhibition, cross-hatch bars) and TGI (total growth inhibition, solid bars) values of all cells in the NCI-60 panel in relation to the attainable free mouse plasma concentration of orally applied compound 1, corrected for the reduction in actual inhibitor concentration by well binding. The oncogenic mutation spectrum of the cell lines is presented at the bottom.
To further exemplify the breadth of anti-tumor activity of compounds 1-4 the NCI-60 panel was screened with compound 1. The spectrum of verified oncogenic driver mutations in these cell lines was recently elucidated to encompass mutations in raf, ras, CDKN2A (cdk inhibitor), p53, PI3K, PTEN, EGFR, APC, FLT3, RB1 among others. Cell lines generally have several of these mutations representative of stage III and IV cancers [Ikediobi et al., Mol. Cancer. Ther. 5, 2606-2612 (2006)]. […] The average concentration for total growth inhibition (TGI) was thus at 200 nM, i.e. about 10-times GI50. At sustained free plasma concentrations in vivo of about 200 nM, that can be achieved with practical forms of oral dosing and in the absence of special formulations, all cell lines would be inhibited by more than 50% without exception, and more than half would show no growth at all or would be killed (FIG. 8).

`CNC(=O)[C@@]1(N)C[C@H]2O[C@]1(C)n1c3ccccc3c3c4c(c5c6ccccc6n2c5c31)C(=O)NC4` [Compound 1] was tested, and the “Mean % Inhibition” value (U251 xenograft) was 74%, the “N tumors with no/neg. growth” value (U251 xenograft) was 3 of 11 and the “growth arrest of U373 cells” value [1] was “almost completely effective”. For the same compound, the “average concentration for total growth inhibition (TGI)” value (NCI-60 panel cell lines; 48 hr exposure) was 0.2 µM, the “cell kill of HT29 cell line in vitro” value (NCI-60 panel cell lines; HT29, highest exposures) was “cannot be killed” and the “anti-proliferative activity across panel” value (NCI-60 panel cell lines; lung, colon, brain, skin, ovarian, kidney, prostate, breast cancer lines) was “Significant anti-proliferative activity was seen in all cell lines”. It also gave a GI50 (NCI-60 panel cell lines; 48 hr exposure, read-out: GI50 potency range across cell lines) of at most 0.15 µM and a GI50 (NCI-60 panel cell lines; 48 hr exposure, read-out: average 50% growth inhibition (GI50) across all cell lines) of 0.032 µM.
